The record followed here is patent US20070105837A1, “Novel derivatives of 4a,5,9,10,11,12-hexahydrobenzofuro[3a,3,2][2]-benzazepine, method for the production thereof and use thereof in the production of medicaments” (priority 2003, published 2007).

Where a name gives a salt, the structure may show the parent alone.

The target of the first experiment is butyrylcholinesterase (Homo sapiens, UniProt P06276). As to the kind of experiment: biochemical.
butyrylcholinesterase, sequence (P06276 29-602): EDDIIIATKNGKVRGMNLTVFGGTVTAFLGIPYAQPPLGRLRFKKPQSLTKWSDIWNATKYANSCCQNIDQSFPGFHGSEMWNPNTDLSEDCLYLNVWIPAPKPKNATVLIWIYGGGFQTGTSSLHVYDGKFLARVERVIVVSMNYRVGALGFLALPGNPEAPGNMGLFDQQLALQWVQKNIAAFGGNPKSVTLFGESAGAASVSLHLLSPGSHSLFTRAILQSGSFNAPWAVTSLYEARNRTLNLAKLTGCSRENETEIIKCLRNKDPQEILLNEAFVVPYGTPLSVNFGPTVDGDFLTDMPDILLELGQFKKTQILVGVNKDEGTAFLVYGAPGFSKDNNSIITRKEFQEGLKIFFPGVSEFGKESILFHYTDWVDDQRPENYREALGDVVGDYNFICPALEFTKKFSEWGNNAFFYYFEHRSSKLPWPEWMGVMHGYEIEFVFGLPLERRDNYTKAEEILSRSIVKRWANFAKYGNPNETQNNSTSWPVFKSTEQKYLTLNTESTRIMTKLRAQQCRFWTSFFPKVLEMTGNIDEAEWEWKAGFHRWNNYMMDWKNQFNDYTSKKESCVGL
Conditions: not given
Regarding `COc1ccc2c3c1O[C@H]1C[C@@H](O)C=C[C@@]31CCN(CC(C)c1cccc(Oc3ccccc3)c1)C2` (stereo partly drawn) [Example 32, 2-((4aS,6R,8aS)-6-hydroxy-3-methoxy-5,6,9,10-tetrahydro-4aH-[1]benzofuro[3a,3,2-ef][2]benzazepine-11(12H)-yl)-1-methyl-1-(3-phenoxyphenyl)ethane hydrochloride], the IC50 came to 0.36 µM.

Still in this experiment, the particulars now being: concentration at which 50% inhibition occurs; read-out: Butyrylcholinesterase IC-50.
With “(4aS,6S,8aS)-1-bromo-6-hydroxy-3-methoxy-4a,5, 9,10-tetrahydro-6N-[1]benzofuro[3a,3,2-et][2]benzazepine-11(12H)-thiocarbonic acid allylamide [Example 2]”, the IC50 was greater than 100 µM.

The same experiment, now with this note: read-out: Butyrylcholinesterase IC-50.
In the case of `COc1ccc2c3c1O[C@H]1C[C@H](O)C=C[C@@]31CCN(CCN1CCOCC1)C2` [Example 15, (4aS,6S,8aS)-4a,5,9,10,11,12-hexahydro-11-(2-(morpholin-4-yl)-ethyl)-3-methoxy-6H-[1]benzofuro[3a,3,2-ef][2]benzazepin-6-ol], the IC50 is greater than 100 µM.
With `CCOC(=O)CCN1CC[C@@]23C=C[C@H](O)C[C@@H]2Oc2c(OC)ccc(c23)C1` [Example 47, Ethyl-3-((4aS,6R,8aS)-6-hydroxy-3-methoxy-5,6,9,10-tetrahydro-4aH-[1]benzofuro[3a,3,2-ef][2]benzazepine-11(12H)-yl)propanoate, hydrochloride], the IC50 came to 51 µM.
Still for that read-out and setting: under `COc1ccc2c3c1O[C@H]1C[C@@H](O)C=C[C@@]31CCN(CC(C)C(=O)c1ccc(C)cc1)C2` (stereo partly drawn) [Example 35, 3-[(4aS,6R,8aS)-6-hydroxy-3-methoxy-5,6,9,10-tetrahydro-4aH-[1]benzofuro[3a,3,2-ef][2]benzazepine-11(12H)-yl]-2-methyl-1(- 4-methylphenyl)propan-1-one, hydrochloride] stands 0.4 µM; under `COc1ccc2c3c1O[C@H]1C[C@@H](O)C=C[C@@]31CCN(C(=O)CN1CCCCC1)C2` [Example 36, 1-[(4aS,6R,8aS)-6-hydroxy-3-methoxy-5,6,9,10-tetrahydro-4aH-[1]benzofuro[3a,3,2-ef][2]benzazepine-11(12H)-yl]-2-(1-piperidyl)ethan-1-one], greater than 100 µM; under `COc1ccc2c3c1O[C@H]1C[C@H](O)C=C[C@@]31CCN(CC=C(C)C)C2` [Example 22, (4aS,6S,8aS)-4a,5,9,10,11,12-hexahydro-3-methoxy-11-(3-Methylbut-2-en-1-yl)-6H-[1]benzofuro[3a,3,2-ef][2]benzazepin-6-ol], 20 µM.
The same measure, in the same setting: to `COc1ccc2c3c1O[C@H]1C[C@@H](O)C=C[C@@]31CCN(CCc1ccccc1Nc1c(Cl)cccc1Cl)C2` [Example 40, 1-((4aS,6R,8aS)-6-hydroxy-3-methoxy-5,6,9,10-tetrahydro-4aH-[1]benzofuro[3a,3,2-ef][2]benzazepine-11(12H)-yl)-2-[2-(2,6-dichloranilino)]-phenylethane] belongs 1.3 µM; to `COc1ccc2c3c1O[C@H]1C[C@@H](O)C=C[C@@]31CCN(C(=O)CCl)C2` [Example 54, 1-[(4aS,6R,8aS)-6-hydroxy-3-methoxy-5,6,9,10-tetrahydro-4aH-[1]benzofuro[3a,3,2-ef][2]benzazepine-11(12H)-yl]-2-chloroethan-1-one], greater than 100 µM.
`COc1ccc2c3c1O[C@H]1C[C@@H](O)C=C[C@@]31CCN(C(=O)c1ccc(Br)cc1)C2` [Example 41, (4aS,6R,8aS)-4a,5,9,10,11,12-hexahydro-3-methoxy-11-(4-bromo-benzoyl)-6H-[1]benzofuro[3a,3,2-ef][2]benzazepin-6-ol]: the IC50 came out at 30 µM.
Consider `C=CCNC(=S)N1CC[C@@]23C=C[C@@H](O)C[C@@H]2Oc2c(OC)cc(Br)c(c23)C1` [Example 12, (4aS,6R,8aS)-1-bromo-6-hydroxy-3-methoxy-4a,5,9,10-tetrahydro-6H-[1]benzofuro[3a,3,2-ef][2]benzazepine-11(12H)-thiocarbonic acid allylamide], for which the IC50 came to 11 µM.
